The values that follow come from ChEMBL document CHEMBL3608215, “Natural β-Dihydroagarofuran-Type Sesquiterpenoids as Cognition-Enhancing and Neuroprotective Agents from Medicinal Plants of the Genus Celastrus” (2015).

The source made the active and inactive calls. No cut-off for these calls is given here.

One assay concerns SH-SY5Y. The assay can be described thus: Neuroprotective activity in human SH-SY5Y cells assessed as production against amyloid beta (25 to 35)-induced cell death by measuring cell viability at 1 uM after 24 hrs by MTT assay. Type of assay: functional. In general terms: Tetrazolium assays rely on reduction of a dye to a coloured formazan, in cell work by metabolically active cells.

In assay [1] the test system is Mus musculus. The assay can be described thus: Cognition-enhancing effect in ICR mouse assessed as reduction of scopolamine-induced escape latency and number of errors at 20 mg/kg, ig treated 1 hr before scopolamine challenge by passageway water maze test. Type of assay: functional, organism-based.
For assay [2], the system named is Mus musculus. The assay can be described thus: Cognition-enhancing effect in ICR mouse assessed as reduction of scopolamine-induced escape latency and number of errors at 0.1 mg/kg, ig treated 1 hr before scopolamine challenge by passageway water maze test. Type of assay: functional, organism-based.
For assay [3], the system named is Mus musculus. The assay can be described thus: Cognition-enhancing effect in ig dosed ICR mouse assessed as reduction of scopolamine-induced escape latency and number of errors treated 1 hr before scopolamine challenge by passageway water maze test. The format is functional, organism-based.
In assay [4] the test system is Mus musculus. The assay can be described thus: Cognition-enhancing effect in ICR mouse assessed as reduction of scopolamine-induced escape latency and number of errors at 10 to 40 mg/kg, ig treated 1 hr before scopolamine challenge by passageway water maze test. Type of assay: functional, organism-based.

As for `CC(=O)O[C@H]1[C@@H](OC(=O)/C=C/c2ccccc2)C[C@@H](C)[C@@]23C[C@@H](C[C@H](OC(=O)/C=C/c4ccccc4)[C@]12C)C(C)(C)O3`, the Activity with SH-SY5Y is on record as 76.3%.

As for `CC(=O)O[C@@H]1[C@H]2C[C@H](OC(=O)/C=C/c3ccccc3)[C@]3(C)[C@@H](OC(C)=O)[C@@H](OC(=O)c4ccccc4)C[C@@H](C)[C@@]13OC2(C)C`, the Activity in the assay with SH-SY5Y was determined as 79.6%.

As for `CC(=O)O[C@H]1C[C@@H]2[C@@H](OC(=O)c3ccccc3)[C@]3(OC2(C)C)[C@H](C)CC[C@H](OC(=O)c2ccccc2)[C@@]13C`, the result in the assay on Mus musculus [1] and in the assay with Mus musculus [2] was Active.

For the molecule `C/C=C1\[C@H]2C=C(C)C[C@]1(N)c1ccc(=O)[nH]c1C2`, the outcome in the assay on Mus musculus [2] was Active.

In the case of `CC(=O)O[C@H]1CC[C@@H](C)[C@@]23C[C@@H](C[C@H](OC(=O)/C=C/c4ccccc4)[C@]12C)C(C)(C)O3`, the result with Mus musculus [2] was Active. Further, the Activity entry in the assay with Mus musculus [3] is “Dose-dependent effect”.

With `CC(=O)O[C@H]1C[C@@H]2[C@@H](OC(C)=O)[C@]3(OC2(C)C)[C@H](C)CC[C@H](OC(=O)c2ccccc2)[C@@]13C`, the outcome with Mus musculus [1] and in the assay on Mus musculus [2] was Active.

In the case of `CC(=O)OC[C@@]12[C@@H](OC(C)=O)CC[C@@H](C)[C@]13OC(C)(C)[C@H](C[C@@H]2OC(=O)c1ccccc1)[C@H]3OC(C)=O`, the result in the assay on Mus musculus [1] and with Mus musculus [2] was Active.

Take `CC(=O)O[C@@H]1[C@@H]2[C@@H](OC(C)=O)[C@]3(OC2(C)C)[C@H](C)CC[C@H](OC(C)=O)[C@@]3(C)[C@H]1OC(=O)c1ccccc1`: the result in the assay with Mus musculus [4] was inactive.
